According to US20200289425A1, “CARBON DOT LIPOSOMES AND USES THEREOF” (National Taiwan University, priority 2017, published 2020):

Assays:
[1] = Degradation of drugs, standing in water for 48 hrs (HPLC or ICP MS); format: physicochemical; conditions: standing for 48 hrs
Method: In this example, the degradation of drug molecules encapsulated in the drug containing vesicles and that of free drugs were investigated. To this purpose, the drug containing vesicles of examples 1.2 or 1.3 or the free drug were placed in water, and let standing for 48 hrs, then the amounts of each drugs in the water were measured by HPLC or ICP MS.

[2] = tested on: A375.S2 cells; assay: Cancer cell growth, Alamar Blue assay, A375; format: cell-based; conditions: A375, 48 hr culture
Description: (§1) Cell lines and cell culture. A549, Hela, MCF-7, Huh7, C2BBe1, BxPC-3, A375.S2, CCRF-CEM, TrampC1 and NIH 3T3 cells were obtained from the American Type Culture Collection (ATCC; Manassas, Va., USA). A549, Hela, Huh7, A375.S2, TrampC1, and NIH 3T3 cells were maintained in Dulbecco's minimal essential medium (DMEM) supplemented with 1.5 g/L sodium bicarbonate,10% fetal bovine serum (FBS), 1.0% antibiotic-antimycotic, L-glutamine (2.0×10^−3 M), and 1.0% nonessential amino acids. MCF-7, BxPC-3 and CCRF-CEM cells were cultured in Roswell Park Memorial Institute (RPMI) medium supplemented with 10% FBS, and 1.0% antibiotic-antimycotic. C2BBe1 cells were grown in DMEM 1.5 g/L sodium bicarbonate, 1.0% antibiotic-antimycotic, L-glutamine (2.0×10^−3 M), and 1.0% nonessential amino acids, 10 mg/L human holo-transferrin, and 10% fetal bovine serum. The cell number and viability of the cells were determined by the trypan blue exclusion method and Alamar Blue assay, respectively.
(§2) The assay is designed to measure quantitatively the proliferation of cell by use of a fluorometric/colorimetric growth indicator based on detection of metabolic activity. Specifically, the alamar blue system incorporates an oxidation-reduction (REDOX) indicator that both fluoresces and changes color in response to chemical reduction of growth medium resulting from cell growth. As cells being tested grow, innate metabolic activity results in a chemical reduction of the system. Continued growth maintains a reduced environment while inhibition of growth maintains an oxidized environment. Reduction related to growth causes the REDOX indicator to change from oxidized (non-fluorescent, blue) form to reduced (fluorescent, red) form.
(§3) Cell viability was determined by Alamar Blue assay in accordance with the manufacturer's protocols.

[3] = tested on: colon cancer cells C2BBE1; assay: Cancer cell growth, Alamar Blue assay, C2BBE1; format: cell-based; conditions: C2BBE1, 48 hr culture
Description: as §1, §2, §3

[4] = tested on: lung cancer cells A549; assay: Cancer cell growth, Alamar Blue assay, A549; format: cell-based; conditions: A549, 48 hr culture
Description: as §1, §2, §3

[5] = tested on: cervical cancer cells Hela; assay: Cancer cell growth, Alamar Blue assay, HeLa; format: cell-based; conditions: 48 hr culture
Description: as §1, §2, §3

[6] = tested on: hepatoma cells Huh7; assay: Cancer cell growth, Alamar Blue assay, Huh7; format: cell-based; conditions: Huh7, 48 hr culture
Description: as §1, §2, §3

[7] = tested on: pancreatic cancer cells BxPC3; assay: Cancer cell growth, Alamar Blue assay, BxPC3; format: cell-based; conditions: BxPC3, 48 hr culture
Description: as §1, §2, §3

[8] = tested on: breast cancer cells MCF7; assay: Cancer cell growth, Alamar Blue assay, MCF7; format: cell-based; conditions: MCF7, 48 hr culture
Description: as §1, §2, §3

[9] = free drug; cited from earlier work

| Structure (SMILES) | Percentage of drugs remained un-degraded [1] [%] | IC50 ([2]; A375-S2) [µM] | IC50 ([3]; Homo sapiens) [µM] | IC50 ([4]; Homo sapiens) [µM] | IC50 ([5]; Homo sapiens) [µM] | IC50 ([6]; Homo sapiens, Huh-7) [µM] | IC50 ([7]; Homo sapiens, BXPC-3) [µM] | IC50 ([8]; Homo sapiens) [µM] | IC50 [2] [µM] | IC50 [3] [µM] | IC50 [4] [µM] | IC50 [5] [µM] | IC50 [6] [µM] | IC50 [7] [µM] | IC50 [8] [µM] | Solubility of the anti-cancer drug [9] |
| --- | --- | --- | --- | --- | --- | --- | --- | --- | --- | --- | --- | --- | --- | --- | --- | --- |
| CC(C)C[C@H](NC(=O)[C@H](CCc1ccccc1)NC(=O)CN1CCOCC1)C(=O)N[C@@H](Cc1ccccc1)C(=O)N[C@@H](CC(C)C)C(=O)[C@@]1(C)CO1 [Carfilzomib] | 48.5 | 750 | 1.6 | 1.8 | 1.3 | 0.7 | 0.08 | 0.1 |  |  |  |  |  |  |  |  |
| N.N.[Cl][Pt][Cl] [Cisplatin] |  |  |  |  |  |  |  |  | 9.2 | 11 | 6.5 | 3.1 | 6.3 | 4.8 | 33 |  |
| CC(=O)O[C@@]12CO[C@@H]1C[C@H](O)[C@@]1(C)C(=O)[C@H](O)C3=C(C)[C@@H](OC(=O)[C@H](O)[C@@H](NC(=O)OC(C)(C)C)c4ccccc4)C[C@@](O)([C@@H](OC(=O)c4ccccc4)[C@H]21)C3(C)C [Docetaxel] | 83.6 | 29 | 100 | 1 | 0.67 | 0.01 | 4.7 | 6.3 |  |  |  |  |  |  |  | 0.27 mg/L |
| COc1cccc2c1C(=O)c1c(O)c3c(c(O)c1C2=O)C[C@@](O)(C(=O)CO)C[C@@H]3O[C@H]1C[C@H](N)[C@H](O)[C@H](C)O1 [Doxorubicin] | 69.5 | 0.75 | 13 | 0.04 | 1.7 | 0.49 | 0.58 | 2 |  |  |  |  |  |  |  | 2,600 mg/L |
| Nc1ccn([C@@H]2O[C@H](CO)[C@@H](O)C2(F)F)c(=O)n1 [Gemcitabine] | 58.8 | 66 | 170 | 17 | 94 | 1 | 51 | 48 |  |  |  |  |  |  |  | 51,000 mg/L |
| CC(=O)O[C@H]1C(=O)[C@@]2(C)[C@H]([C@H](OC(=O)c3ccccc3)[C@]3(O)C[C@H](OC(=O)[C@H](O)[C@@H](NC(=O)c4ccccc4)c4ccccc4)C(C)=C1C3(C)C)[C@]1(OC(C)=O)CO[C@@H]1C[C@@H]2O [Paclitaxel] |  |  |  |  |  |  |  |  |  |  |  |  |  |  |  | 5.6 mg/L |
